Source: patent US20150352108A1, “AMINO-PYRIMIDINE COMPOUNDS AS INHIBITORS OF TBK1 AND/OR IKK EPSILON” (Alzheimer's Institute of America, priority 2009, published 2015)
Like-named read-outs stand apart in the source and are kept apart here.

Key:
IKKε = biological target: T1, IKKε (Homo sapiens, UniProt Q14164); assay: In-vitro IKKε kinase assay ([γ33]ATP filter-plate); type: biochemical
T1 construct: His-tag; made in house; host or cells: Sf9 insect cells
T1 sequence (Q14164 1-716): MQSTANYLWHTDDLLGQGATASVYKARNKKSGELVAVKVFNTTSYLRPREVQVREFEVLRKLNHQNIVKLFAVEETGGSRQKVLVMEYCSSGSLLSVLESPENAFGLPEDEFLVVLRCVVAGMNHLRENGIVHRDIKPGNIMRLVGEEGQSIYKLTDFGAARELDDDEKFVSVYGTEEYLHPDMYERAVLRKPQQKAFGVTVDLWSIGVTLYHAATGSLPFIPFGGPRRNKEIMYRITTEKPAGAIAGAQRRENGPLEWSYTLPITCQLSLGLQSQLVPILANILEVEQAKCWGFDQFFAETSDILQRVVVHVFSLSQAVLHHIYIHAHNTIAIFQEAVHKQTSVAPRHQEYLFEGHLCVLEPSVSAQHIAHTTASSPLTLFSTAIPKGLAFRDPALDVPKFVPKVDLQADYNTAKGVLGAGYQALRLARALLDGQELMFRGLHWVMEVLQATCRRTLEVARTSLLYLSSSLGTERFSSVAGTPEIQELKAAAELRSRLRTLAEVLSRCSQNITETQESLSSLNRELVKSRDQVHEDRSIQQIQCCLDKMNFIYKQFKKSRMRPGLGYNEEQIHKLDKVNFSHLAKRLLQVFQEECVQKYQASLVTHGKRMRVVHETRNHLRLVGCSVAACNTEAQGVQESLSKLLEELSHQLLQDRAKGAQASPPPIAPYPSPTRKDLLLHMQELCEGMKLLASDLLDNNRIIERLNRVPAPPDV
Method in brief: (§1)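 Phosphorylation of casein or myelin basic protein was counted by P-81 filter capture after 30-45 min reactions stopped with phosphoric acid, with counts normalized to DMSO after background subtraction. ATP was twice Km: 60 μM for TBK1 and 32 μM for IKKε, plus [γ33]ATP. Sf9-expressed His-tag enzymes were used at normal/sensitized levels of 0.1/0.02 μg/ml (TBK1) and 0.1/0.015 μg/ml (IKKε).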

TBK1 = biological target: T2, TBK1 (Homo sapiens, UniProt Q9UHD2); assay: In-vitro TBK1 kinase assay ([γ33]ATP filter-plate); type: biochemical
T2 construct: His-tag; made in house; host or cells: Sf9 insect cells
T2 sequence (Q9UHD2 1-729): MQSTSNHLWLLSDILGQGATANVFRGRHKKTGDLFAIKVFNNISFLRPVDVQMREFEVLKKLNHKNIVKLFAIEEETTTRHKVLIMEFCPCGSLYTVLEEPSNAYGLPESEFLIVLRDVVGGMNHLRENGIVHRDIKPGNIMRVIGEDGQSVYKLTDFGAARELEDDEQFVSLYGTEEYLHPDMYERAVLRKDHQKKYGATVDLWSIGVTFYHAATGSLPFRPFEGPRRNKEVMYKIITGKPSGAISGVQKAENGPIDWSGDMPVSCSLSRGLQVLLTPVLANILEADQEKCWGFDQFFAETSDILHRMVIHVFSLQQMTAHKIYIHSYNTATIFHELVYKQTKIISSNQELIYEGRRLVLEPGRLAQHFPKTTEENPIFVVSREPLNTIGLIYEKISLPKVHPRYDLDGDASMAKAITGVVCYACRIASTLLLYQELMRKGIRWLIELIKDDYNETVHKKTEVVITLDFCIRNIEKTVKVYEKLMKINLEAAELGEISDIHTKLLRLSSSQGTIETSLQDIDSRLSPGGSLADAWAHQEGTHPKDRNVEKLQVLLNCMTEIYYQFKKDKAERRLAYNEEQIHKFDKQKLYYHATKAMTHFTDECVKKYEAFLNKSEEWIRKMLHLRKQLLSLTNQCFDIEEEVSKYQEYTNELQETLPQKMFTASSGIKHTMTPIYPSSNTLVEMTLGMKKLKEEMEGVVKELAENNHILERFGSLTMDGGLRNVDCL
Method in brief: as §1

[1] = text bins, read-out: IC50 for inhibition of the kinase activity of IKKε
[2] = text bins, read-out: IC50 for inhibition of the kinase activity of TBK1

| SMILES | IC50 (IKKε; [1]) [nM] | IC50 (TBK1; [2]) [nM] | IC50 (IKKε; Table 3, read-out: IKKε IC50) [nM] | IC50 (TBK1; Table 3, read-out: TBK1 IC50) [nM] |
| --- | --- | --- | --- | --- |
| N#Cc1cc(-c2ccnc(Nc3ccc(N4CCOCC4)cc3)n2)ccc1NC(=O)C1CCC1 [compound 416, N-[2-cyano-4-(2-{[4-(morpholin-4-yl)phenyl]amino}pyrimidin-4-yl)phenyl] cyclobutane-carboxamide] | 5 to 50 | 10 to 100 |  |  |
| N#Cc1cc(-c2ccnc(Nc3ccc(N4CCOCC4)cc3)n2)ccc1OCCCO [Example 210, 2-(3-Hydroxypropoxy)-5-(2-{[4-(morpholin-4-yl)phenyl]amino}pyrimidin-4-yl)benzonitrile] | < 5 | < 10 |  |  |
| CNc1ccc(-c2ccnc(Nc3ccc(N4CCOCC4)cc3)n2)cc1C#N [Example 218, 2-(Methylamino)-5-(2-{[4-(morpholin-4-yl)phenyl]amino}pyrimidin-4-yl)benzonitrile] | 5 to 50 | < 10 |  |  |
| N#Cc1cc(-c2ccnc(Nc3ccc(N4CCOCC4)cc3)n2)ccc1OCCCNC(=O)CO [Example 181, N-{3-[2-cyano-4-(2-{[4-(morpholin-4-yl)phenyl]amino}pyrimidin-4-yl)phenoxy]propyl}-2-hydroxyacetamide] | < 5 | < 10 |  |  |
| CCC(C)C(=O)Nc1ccc(-c2ccnc(Nc3ccc(N4CCOCC4)cc3)n2)cc1C#N (stereo not shown) [compound 417, N-[2-cyano-4-(2-{[4-(morpholin-4-yl)phenyl]amino}pyrimidin-4-yl)phenyl]-2-methylbutanamide] | 5 to 50 | < 10 |  |  |
| COc1cc(NC(=O)N2CC[C@H](O)C2)cc(Nc2nccc(-c3ccc(OC)c(C#N)c3)n2)c1 [compound 294, (3S)-N-(3-{[4-(3-Cyano-4-methoxyphenyl)pyrimidin-2-yl]amino}-5-methoxyphenyl)-3-hydroxypyrrolidine-1-carboxamide] | 5 to 50 | 10 to 100 |  |  |
| CC(C)C(=O)Nc1ccc(-c2ccnc(Nc3ccc(F)c(OCCCN4CCOCC4)c3)n2)cc1C#N [compound 411, N-{2-Cyano-4-[2-({4-fluoro-3-[3-(morpholin-4-yl)propoxy]phenyl}amino)pyrimidin-4-yl]phenyl}-2-methylpropanamide] | 5 to 50 | 10 to 100 |  |  |
| N#Cc1cc(-c2ccnc(Nc3ccc(N4CCOCC4)cc3)n2)ccc1OCCC1CCN(C(=O)CO)CC1 [compound 457, 2-{2-[1-(hydroxyacetyl)piperidin-4-yl]ethoxy}-5-(2-{[4-(morpholin-4-yl)phenyl]amino}pyrimidin-4-yl)benzonitrile] | 5 to 50 | 10 to 100 |  |  |
| CC1(C)CC1C(=O)Nc1ccc(-c2ccnc(Nc3ccc(N4CCOCC4)cc3)n2)cc1C#N (stereo not shown) [compound 554, N-[2-Cyano-4-(2-{[4-(morpholin-4-yl)phenyl]amino}pyrimidin-4-yl)phenyl]-2,2-dimethylcyclopropane-carboxamide] | 5 to 50 | < 10 |  |  |
| COc1ccc(-c2ccnc(Nc3cc(CN4CCOCC4)c(OC)c(OC)c3)n2)cc1C#N [Example 226, 5-(2-{[3,4-Dimethoxy-5-(morpholin-4-ylmethyl)phenyl]amino}pyrimidin-4-yl)-2-methoxybenzonitrile] | 5 to 50 | 10 to 100 |  |  |
| N#Cc1cc(-c2ccnc(Nc3ccc4c(c3)OCO4)n2)ccc1OC1CCOCC1 [Example 23, 5-[2-(1,3-benzodioxol-5-ylamino)pyrimidin-4-yl]-2-(tetrahydro-2H-pyran-4-yloxy)benzonitrile] | 5 to 50 | < 10 |  |  |
| COCCNC(=O)c1ccc(Nc2nccc(-c3ccc(OCC(C)C)c(C#N)c3)n2)cc1 [compound 565, 4-({4-[3-Cyano-4-(2-methylpropoxy)phenyl]pyrimidin-2-yl}amino)-N-(2-methoxyethyl) benzamide] | < 5 | < 10 | 0.6 | 2.1 |
| CC(C)(COc1ccc(-c2ccnc(Nc3ccc(N4CCOCC4)cc3)n2)cc1C#N)C(=O)O [compound 460, 3-[2-cyano-4-(2-{[4-(morpholin-4-yl)phenyl]amino}pyrimidin-4-yl)phenoxy]-2,2-dimethylpropanoic acid] | 5 to 50 | 10 to 100 |  |  |
| COc1cc(Nc2nccc(-c3ccc(OC4CCOCC4)c(C#N)c3)n2)ccc1S(=O)(=O)N(C)CCCN(C)C [compound 397] | < 5 | < 10 |  |  |
| CC(C)C(=O)Nc1ccc(-c2ccnc(Nc3cccc(CC(=O)NCCCN4CCOCC4)c3)n2)cc1C#N [compound 422, N-[2-cyano-4-(2-{[3-(2-{[3-(morpholin-4-yl)propyl]amino}-2-oxoethyl)phenyl]amino}pyrimidin-4-yl)phenyl]-2-methylpropanamide] | 5 to 50 | 10 to 100 |  |  |
| N#Cc1cccc(-c2ccnc(Nc3cccc(S(N)(=O)=O)c3)n2)c1 [compound 373] | < 5 | 10 to 100 |  |  |
| COc1ccc(-c2ccnc(Nc3ccc(OC4CCN(C)CC4)cc3)n2)cc1C#N [Example 288, 2-Methoxy-5-[2-({4-[(1-methylpiperidin-4-yl)oxy]phenyl}amino)pyrimidin-4-yl]benzonitrile] | 5 to 50 | < 10 |  |  |
| COc1cc(Nc2nccc(-c3ccc(OC4CCN(C(C)=O)CC4)c(C#N)c3)n2)ccc1N1CCNC(=O)C1 [Example 134, 2-[(1-Acetylpiperidin-4-yl)oxy]-5-(2-{[3-methoxy-4-(3-oxopiperazin-1-yl)phenyl]amino}pyrimidin-4-yl)benzonitrile] | < 5 | < 10 |  |  |
| COc1ccc(-c2ccnc(Nc3ccc(OC)c(OC)c3)n2)cc1C#N [Example 48, 5-{2-[(3,4-Dimethoxyphenyl)amino]pyrimidin-4-yl}-2-methoxybenzonitrile] | 5 to 50 | 10 to 100 |  |  |
| N#Cc1cc(-c2ccnc(Nc3ccc(N4CCOCC4)cc3)n2)ccc1OCC1CCCNC1 (stereo not shown) [Example 94] | 5 to 50 | 10 to 100 |  |  |
| N#Cc1cc(-c2ccnc(Nc3ccc(N4CCOCC4)cc3)n2)ccc1OC1CCN(C(=O)CO)C1 (stereo not shown) [Example 96, 2-{[1-(Hydroxyacetyl)pyrrolidin-3-yl]oxy}-5-(2-{[4-(morpholin-4-yl)phenyl]amino}pyrimidin-4-yl)benzonitrile] | < 5 | < 10 |  |  |
| COc1cc(Nc2nccc(-c3ccc(OC4CCOCC4)c(C#N)c3)n2)ccc1C(=O)N1CC2CC1CN2 (stereo not shown) [compound 496, 5-(2-{[4-(2,5-diazabicyclo[2.2.1]hept-2-ylcarbonyl)-3-methoxyphenyl]amino}pyrimidin-4-yl)-2-(tetrahydro-2H-pyran-4-yloxy)benzonitrile] | < 5 | < 10 |  |  |
| COc1cc(NC(=O)N2CCCC(O)C2)cc(Nc2nccc(-c3ccc(OC)c(C#N)c3)n2)c1 (stereo not shown) [compound 353, N-(3-{[4-(3-Cyano-4-methoxyphenyl)pyrimidin-2-yl]amino}-5-methoxyphenyl)-3-hydroxypiperidine-1-carboxamide] | 5 to 50 | 10 to 100 |  |  |
| COc1cc(NC(=O)NCCO)cc(Nc2nccc(-c3ccc(OC)c(C#N)c3)n2)c1 [compound 295, 1-(3-{[4-(3-Cyano-4-methoxyphenyl)pyrimidin-2-yl]amino}-5-methoxyphenyl)-3-(2-hydroxyethyl)urea] | 5 to 50 | 10 to 100 |  |  |
| COc1ccc(-c2ccnc(Nc3ccc(N4CCOCC4)cc3)n2)cc1C#N [Example 266, 2-Methoxy-5-(2-{[4-(morpholin-4-yl)phenyl]amino}pyrimidin-4-yl)benzonitrile] | 5 to 50 | < 10 |  |  |
